Data reported in patent US20210000912A1, “Compositions And Methods For Prophylaxis Or Treatment Of Pain” (Interk Peptide Therapeutics Limited, priority 2017, published 2021).
Entries after “also recorded” stand apart in the source; their conditions may differ.

Tests used:
[1] = system: CFA-injected mice; assay: Grip strength testing in CFA study; assay type: in vivo, C57Bl/6 mice; details: intra-peritoneal, CFA study
Description: Forepaw grip strength was determined using a grip strength meter (DFIS-2 series digital force gauge, Columbus Instruments, Columbus, Ohio). The animals' forelimbs were placed on a horizontal bar connected to a force gauge. The animal was the gently pulled away from the bar and the peak force required for a release was recorded. Each mouse was tested 3 times, with a 1 min inter-trial interval (Martinez-Huenchullan, S. F., et al., “Utility and reliability of non-invasive muscle function tests in high-fat-fed mice”. Experimental Physiology, 2017. 102(7): p. 773-778). The average peak tension (g), and tension normalised to body weight were compared.

[2] = system: CFA-injected mice; assay: CFA inflammatory pain model, incapacitance testing

CN1CC[C@]23c4c5ccc(O)c4O[C@H]2[C@@H](O)C=C[C@H]3[C@H]1C5 [morphine]
grip strength compared to vehicle control [1]: increased grip strength | effectiveness in incapacitance test, morphine versus IK01400, pooled data ([2]; first 30 minutes after injection): more effective | hyperactivity ([2]; mice, intra-peritoneal): observed to induce hyperactivity | effectiveness in incapacitance test, morphine versus IK01400 (8.6 mg/kg) ([2]; second hour after administration): less effective than IK01400; also recorded: reduced
